# Calls of active or inactive are those of the source. The rule behind the calls is not given here.
# Assays:
# Mus musculus [1] = test: Anticonvulsant activity in Swiss mouse assessed as protection against maximal electroshock-induced seizures at 100 mg/kg, ip pretreated for 2 hrs; type: functional, organism-based
# Mus musculus [2] = test: Anticonvulsant activity in ip dosed Swiss mouse assessed as reduction in clonic seizures at 0.5 hrs by subcutaneous pentylenetetrazole seizure test; type: functional
# [3] = Protective index, ratio of TD50 for neurotoxicity in ip dosed Swiss mouse to ED50 for anticonvulsant activity in ip dosed MES Swiss mouse model at 0.5 hrs; type: toxicity, organism-based; details: in vivo, read-out: Ratio TD50/ED50
# Mus musculus [4] = test: Anticonvulsant activity in ip dosed Swiss mouse assessed as protection against maximal electroshock-induced seizures at 0.5 hrs; type: functional
# Mus musculus [5] = test: Anticonvulsant activity against ip dosed Swiss mouse seizure model assessed as protection at 0.5 hrs by 6 Hz psychomotor seizure test; type: functional
# [6] = Protective index, ratio of TD50 for neurotoxicity in ip dosed Swiss mouse to ED50 for anticonvulsant activity in ip dosed Swiss mouse 6 Hz psychomotor seizure model at 0.5 hrs; type: toxicity, organism-based; details: in vivo, read-out: Ratio TD50/ED50
# Mus musculus [7] = test: Anticonvulsant activity in Swiss mouse assessed as protection against maximal electroshock-induced seizures at 300 mg/kg, ip pretreated for 0.5 hrs; type: functional, organism-based
# Mus musculus [8] = test: Anticonvulsant activity in Swiss mouse assessed as protection against maximal electroshock-induced seizures at 300 mg/kg, ip pretreated for 0.25 hrs; type: functional, organism-based
# Mus musculus [9] = test: Anticonvulsant activity in Swiss mouse assessed as protection against maximal electroshock-induced seizures at 300 mg/kg, ip pretreated for 2 hrs; type: functional, organism-based
# Mus musculus [10] = test: Anticonvulsant activity in Swiss mouse assessed as protection against maximal electroshock-induced seizures at 300 mg/kg, ip pretreated for 1 hr; type: functional, organism-based
# Mus musculus [11] = test: Anticonvulsant activity in Swiss mouse assessed as protection against maximal electroshock-induced seizures at 100 mg/kg, ip pretreated for 0.5 hrs; type: functional, organism-based
# Mus musculus [12] = test: Anticonvulsant activity in Swiss mouse assessed as protection against maximal electroshock-induced seizures at 100 mg/kg, ip pretreated for 1 hr; type: functional, organism-based
# Mus musculus [13] = test: Anticonvulsant activity in Swiss mouse assessed as protection against maximal electroshock-induced seizures at 100 mg/kg, ip pretreated for 0.25 hrs; type: functional, organism-based
# [14] = Neurotoxicity in ip dosed Swiss mouse seizure model assessed as motor impairment pretreated for 0.5 hrs measured within 60 s by chimney test; type: toxicity, organism-based; details: in vivo
# Mus musculus [15] = test: Anticonvulsant activity against Swiss mouse seizure model assessed as protection at 100 mg/kg, ip pretreated for 2 hrs by 6 Hz psychomotor seizure test; type: functional, organism-based
# Mus musculus [16] = test: Anticonvulsant activity against ip dosed Swiss mouse seizure model assessed as protection at 0.25 hrs by 6 Hz psychomotor seizure test; type: functional
# Mus musculus [17] = test: Anticonvulsant activity in ip dosed Swiss mouse assessed as reduction in clonic seizures at 0.25 hrs by subcutaneous pentylenetetrazole seizure test; type: functional
# Mus musculus [18] = test: Anticonvulsant activity against Swiss mouse seizure model assessed as protection at 100 mg/kg, ip pretreated for 0.25 hrs by 6 Hz psychomotor seizure test; type: functional, organism-based
# Mus musculus [19] = test: Anticonvulsant activity in ip dosed Swiss mouse assessed as protection against maximal electroshock-induced seizures at 0.25 hrs; type: functional
# [20] = Neurotoxicity in ip dosed Swiss mouse seizure model assessed as motor impairment pretreated for 0.25 hrs measured within 60 s by chimney test; type: toxicity, organism-based; details: in vivo
# [21] = Protective index, ratio of TD50 for neurotoxicity in ip dosed Swiss mouse to ED50 for anticonvulsant activity in ip dosed MES Swiss mouse model at 0.25 hrs; type: toxicity, organism-based; details: in vivo, read-out: Ratio TD50/ED50
# Mus musculus [22] = test: Antinociceptive activity in ip dosed Swiss mouse assessed as reduction of formalin-induced licking at MES ED50 pretreated for 0.25 hrs measured during 1 to 5 mins; type: functional
# [23] = Protective index, ratio of TD50 for neurotoxicity in ip dosed Swiss mouse to ED50 for anticonvulsant activity in ip dosed Swiss mouse 6 Hz psychomotor seizure model at 0.25 hrs; type: toxicity, organism-based; details: in vivo, read-out: Ratio TD50/ED50
# Mus musculus [24] = test: Antinociceptive activity in ip dosed Swiss mouse assessed as reduction of formalin-induced licking at MES ED50 pretreated for 0.25 hrs measured during 15 to 20 mins; type: functional; parameters: scale not given: the % may be the effect or the level left
# Mus musculus [25] = test: Toxicity in Swiss mouse assessed as death at 300 mg/kg, ip measured after 0.25 hrs; type: organism-based; details: in vivo
# Rattus norvegicus [26] = species: Rattus norvegicus; test: Displacement of [3H]nitrendipine from calcium channel L-Type dihydropyridine site in rat cerebral cortex at 100 uM after 120 mins by scintillation counting method; type: tissue-based
# Rattus norvegicus [27] = species: Rattus norvegicus; test: Displacement of [3H]Batrachotoxinin from sodium channel site 2 in rat cerebral cortex at 100 uM after 60 mins by scintillation counting method; type: tissue-based
# Rattus norvegicus [28] = species: Rattus norvegicus; test: Displacement of [3H]Batrachotoxinin from sodium channel site 2 in rat cerebral cortex at 500 uM after 60 mins by scintillation counting method; type: tissue-based
# Mus musculus [29] = test: Anticonvulsant activity in Swiss mouse assessed as reduction in clonic seizures at 100 mg/kg, ip pretreated for 2 hrs measured after 30 mins by subcutaneous pentylenetetrazole seizure test; type: functional, organism-based
structure (smiles),measurement,setting,value
CCC(C(=O)N1CCN(c2cccc(C(F)(F)F)c2)CC1)N1C(=O)CC(C)(C)C1=O (centres undefined),Activity,Mus musculus [1],inactive
COC[C@@H](NC(C)=O)C(=O)NCc1ccccc1 [LACOSAMIDE],ED50,Mus musculus [2],> 500 mg/kg
same,selectivity ratio at 0.5 h,[3],3.6
same,ED50,Mus musculus [4],9.4 mg/kg
same,ED50,Mus musculus [5],6.4 mg/kg
same,selectivity ratio at 0.5 h,[6],5.26
CC(C(=O)N1CCN(c2cccc(Cl)c2Cl)CC1)N1C(=O)CC(C)(C)C1=O (centres undefined),Activity,Mus musculus [7],inactive
same,Activity,Mus musculus [8],inactive
same,Activity,Mus musculus [9],inactive
same,Activity,Mus musculus [10],inactive
CC1CC(=O)N(C(C)C(=O)N2CCN(c3ccccc3F)CC2)C1=O (centres undefined),Activity,Mus musculus [9],inactive
same,Activity,Mus musculus [1],inactive
same,Activity,Mus musculus [11],inactive
same,Activity,Mus musculus [12],inactive
same,Activity,Mus musculus [10],inactive
COc1cccc(N2CCN(C(=O)C(C)N3C(=O)CC(C)(C)C3=O)CC2)c1 (centres undefined),Activity,Mus musculus [9],inactive
same,Activity,Mus musculus [1],inactive
same,Activity,Mus musculus [11],inactive
same,Activity,Mus musculus [13],inactive
same,Activity,Mus musculus [12],inactive
same,Activity,Mus musculus [10],inactive
CC(C(=O)N1CCN(c2ccc(F)cc2)CC1)N1C(=O)CC(C)(C)C1=O (centres undefined),Activity,Mus musculus [8],inactive
same,Activity,Mus musculus [9],inactive
CC1CC(=O)N(CC(=O)N2CCN(c3cccc(C(F)(F)F)c3)CC2)C1=O (centres undefined),ED50,Mus musculus [2],> 200 mg/kg
same,ED50,Mus musculus [4],80.6 mg/kg
same,TD50 at 0.5 h,[14],225 mg/kg
same,ED50,Mus musculus [5],52.3 mg/kg
CC(C(=O)N1CCN(C)CC1)N1C(=O)CC(C)(C)C1=O (centres undefined),Activity,Mus musculus [7],inactive
same,Activity,Mus musculus [8],inactive
same,Activity,Mus musculus [9],inactive
same,Activity,Mus musculus [10],inactive
CCC(C(=O)N1CCN(c2cccc(Cl)c2)CC1)N1C(=O)CC(C)C1=O (centres undefined),Activity,Mus musculus [15],inactive
same,ED50,Mus musculus [16],43.5 mg/kg
same,ED50,Mus musculus [17],> 130 mg/kg
same,Activity,Mus musculus [9],inactive
same,Activity,Mus musculus [1],inactive
same,Activity,Mus musculus [18],Active
same,ED50,Mus musculus [19],117 mg/kg
same,TD50 at 0.25 h,[20],223 mg/kg
same,selectivity ratio at 0.25 h,[21],1.91
same,Activity,Mus musculus [22],inactive
same,selectivity ratio at 0.25 h,[23],5.13
same,Activity,Mus musculus [24],93%
same,Activity,Mus musculus [12],inactive
CC(C(=O)N1CCN(c2ccc(C(F)(F)F)cc2)CC1)N1C(=O)CC(C)(C)C1=O (centres undefined),Activity,Mus musculus [8],inactive
same,Activity,Mus musculus [25],Toxic
CC(C(=O)N1CCN(c2cccc(F)c2)CC1)N1C(=O)CC(C)(C)C1=O (centres undefined),Activity,Mus musculus [1],inactive
CC1(C)O[C@@H]2[C@@H](CO[C@@]3(COS(N)(=O)=O)OC(C)(C)O[C@@H]23)O1,inhibition,Rattus norvegicus [26],7.9%
CC1CC(=O)N(C(C)C(=O)N2CCN(c3ccccc3)CC2)C1=O (centres undefined),Activity,Mus musculus [1],inactive
same,Activity,Mus musculus [11],inactive
same,Activity,Mus musculus [12],inactive
CC1CC(=O)N(C(C)C(=O)N2CCN(c3ccc(F)cc3)CC2)C1=O (centres undefined),Activity,Mus musculus [9],inactive
same,Activity,Mus musculus [10],inactive
COc1cccc(N2CCN(C(=O)C(C)N3C(=O)CC(C)C3=O)CC2)c1 (centres undefined),Activity,Mus musculus [1],inactive
same,Activity,Mus musculus [11],inactive
same,Activity,Mus musculus [12],inactive
Cc1cccc(N2CCN(C(=O)C(C)N3C(=O)CC(C)C3=O)CC2)c1 (centres undefined),Activity,Mus musculus [7],Active
same,Activity,Mus musculus [8],Active
same,Activity,Mus musculus [9],inactive
same,Activity,Mus musculus [1],inactive
same,ED50,Mus musculus [19],122 mg/kg
same,TD50 at 0.25 h,[20],210 mg/kg
same,selectivity ratio at 0.25 h,[21],1.73
same,Activity,Mus musculus [12],inactive
CC1CC(=O)N(C(C)C(=O)N2CCN(c3ccc(Cl)cc3)CC2)C1=O (centres undefined),Activity,Mus musculus [9],inactive
CC(C(=O)N1CCN(c2ccc(Cl)c(Cl)c2)CC1)N1C(=O)CC(C)(C)C1=O (centres undefined),Activity,Mus musculus [1],inactive
CC1CC(=O)N(C(C)C(=O)N2CCN(c3cccc(Cl)c3Cl)CC2)C1=O (centres undefined),Activity,Mus musculus [7],inactive
same,Activity,Mus musculus [8],inactive
same,Activity,Mus musculus [9],inactive
same,Activity,Mus musculus [10],inactive
CC1CC(=O)N(C(C)C(=O)N2CCN(c3ccc(C(F)(F)F)cc3)CC2)C1=O (centres undefined),Activity,Mus musculus [8],inactive
same,Activity,Mus musculus [25],Toxic
CC(C(=O)N1CCN(c2ccccc2)CC1)N1C(=O)CC(C)(C)C1=O (centres undefined),Activity,Mus musculus [7],Active
same,Activity,Mus musculus [8],Active
same,Activity,Mus musculus [9],inactive
same,Activity,Mus musculus [1],inactive
same,ED50,Mus musculus [19],> 130 mg/kg
same,Activity,Mus musculus [12],inactive
NC(=O)N1c2ccccc2C=Cc2ccccc21,inhibition,Rattus norvegicus [27],17.4%
same,inhibition,Rattus norvegicus [28],33.6%
Cc1cccc(N2CCN(C(=O)C(C)N3C(=O)CC(C)(C)C3=O)CC2)c1 (centres undefined),Activity,Mus musculus [9],inactive
same,Activity,Mus musculus [1],inactive
same,Activity,Mus musculus [11],inactive
same,Activity,Mus musculus [13],inactive
same,Activity,Mus musculus [12],inactive
CC(C(=O)N1CCN(c2ccccc2Cl)CC1)N1C(=O)CC(C)(C)C1=O (centres undefined),Activity,Mus musculus [8],inactive
same,Activity,Mus musculus [9],inactive
CC1CC(=O)N(C(C)C(=O)N2CCN(c3ccc(Cl)c(Cl)c3)CC2)C1=O (centres undefined),Activity,Mus musculus [1],inactive
same,Activity,Mus musculus [12],inactive
CCC(C(=O)N1CCN(c2cccc(Cl)c2)CC1)N1C(=O)CC(C)(C)C1=O (centres undefined),Activity,Mus musculus [1],inactive
same,Activity,Mus musculus [11],inactive
same,Activity,Mus musculus [13],inactive
same,Activity,Mus musculus [12],inactive
CC1CC(=O)N(C(C)C(=O)N2CCN(c3ccccc3C(F)(F)F)CC2)C1=O (centres undefined),Activity,Mus musculus [8],Active
same,Activity,Mus musculus [9],inactive
same,Activity,Mus musculus [1],inactive
CC1CC(=O)N(C(C)C(=O)N2CCN(C)CC2)C1=O (centres undefined),Activity,Mus musculus [7],inactive
same,Activity,Mus musculus [8],inactive
same,Activity,Mus musculus [9],inactive
same,Activity,Mus musculus [10],inactive
CC(C(=O)N1CCN(c2ccccc2C(F)(F)F)CC1)N1C(=O)CC(C)(C)C1=O (centres undefined),Activity,Mus musculus [7],Active
same,Activity,Mus musculus [8],Active
same,Activity,Mus musculus [1],inactive
same,ED50,Mus musculus [19],> 130 mg/kg
same,Activity,Mus musculus [12],inactive
CC(C(=O)N1CCN(c2cccc(Cl)c2)CC1)N1C(=O)CC(C)(C)C1=O (centres undefined),Activity,Mus musculus [7],Active
same,Activity,Mus musculus [15],inactive
same,Activity,Mus musculus [8],Active
same,ED50,Mus musculus [2],> 130 mg/kg
same,Activity,Mus musculus [29],inactive
same,ED50,Mus musculus [16],19.8 mg/kg
same,Activity,Mus musculus [1],inactive
same,Activity,Mus musculus [18],Active
same,ED50,Mus musculus [19],120 mg/kg
same,TD50 at 0.25 h,[20],176 mg/kg
same,selectivity ratio at 0.25 h,[21],1.47
same,Activity,Mus musculus [22],44%
same,selectivity ratio at 0.25 h,[23],8.91
same,Activity,Mus musculus [24],91%
same,Activity,Mus musculus [13],Active
CC1CC(=O)N(C(C)C(=O)N2CCN(c3cccc(F)c3)CC2)C1=O (centres undefined),Activity,Mus musculus [9],inactive
same,Activity,Mus musculus [1],inactive
same,Activity,Mus musculus [11],inactive
same,Activity,Mus musculus [12],inactive
same,Activity,Mus musculus [10],inactive
CC1CC(=O)N(C(C)C(=O)N2CCN(c3ccccc3Cl)CC2)C1=O (centres undefined),Activity,Mus musculus [9],inactive
same,Activity,Mus musculus [1],inactive
same,Activity,Mus musculus [11],inactive
same,Activity,Mus musculus [13],inactive
same,Activity,Mus musculus [12],inactive
CC(C(=O)N1CCN(c2ccccc2F)CC1)N1C(=O)CC(C)(C)C1=O (centres undefined),Activity,Mus musculus [7],inactive
same,Activity,Mus musculus [8],inactive
same,Activity,Mus musculus [9],inactive
same,Activity,Mus musculus [10],inactive
